We go through 7 molecules from publication PMC8164657, “Intraoperative visualization of nerves using a myelin protein-zero specific fluorescent tracer” (EJNMMI Research, 2021).

The term solubility (thermodynamic) denotes solubility found after equilibrating the solid with the medium. For orientation: Kd means the concentration at which binding is half-saturated. A high value points to lower affinity.

≈ marks a conversion by molar mass, not a printed value. Where “and” joins values, the source holds several entries; their conditions need not be identical. Equal entries are not always repeated. Residues, ends and D or L forms follow the SMILES beside them. *: point of attachment. X1 = CC1(C)C(/C=C/C=C/C=C2/N(CCCCS(=O)(=O)O)c3ccc(S(=O)(=O)O)cc3C2(C)C)=[N+](CCCCCC(=O)NCCN2C(=O)CC(*)C2=O)c2ccc(S(=O)(=O)[O-])cc21; Cy5 = far-red cyanine dye Cy5 on Cys A value given as a limit tells only on which side of the number the result lay.

Series [1] can be described thus: Solubility in H2O. It counts as physicochemical. The conditions noted are these: water; saturated solution in H2O at r.t., centrifugation, absorption of supernatant (UV/Vis).
For series [2], the target named is T1, P0 (P0-expressing RT4 D6P2T cells) (Rattus norvegicus, UniProt P06907).
T1 construct: was performed using P0-expressing RT4 D6P2T cells; host or cells: RT4 D6P2T Schwannoma cells
T1 sequence (P06907 30-248): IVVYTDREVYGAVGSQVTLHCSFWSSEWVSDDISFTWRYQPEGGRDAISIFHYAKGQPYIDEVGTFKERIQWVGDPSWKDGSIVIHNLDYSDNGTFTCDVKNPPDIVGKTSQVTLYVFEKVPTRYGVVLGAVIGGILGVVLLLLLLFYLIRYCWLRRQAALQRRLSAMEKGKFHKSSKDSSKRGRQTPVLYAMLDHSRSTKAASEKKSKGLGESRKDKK
Briefly: Flow cytometric saturation binding (KD). Particulars: saturation binding 0–2000 nM, flow cytometry APC-A channel, triplicate, repeated at least three times. How it is done:
Analysis of the binding affinity (KD) of Cy5-P0_1–25, Cy5-P0_41–65, Cy5-P0_61–85, Cy5-P0_81–105, Cy5-P0_95–120 and Cy5-P0_101–125 for P0 was performed using P0-expressing RT4 D6P2T cells and a previously described flow cytometric method. For saturation, binding experiments were performed for each of the fluorescent peptides in a concentration range of 0–2000 nM. All measurements were taken in triplicate, and experiments were repeated at least three times per tracer. Fluorescence was measured using a FACSCanto II flow cytometry device (BD Biosciences) in the APC-A channel. The normalized geometric means were fitted with equations in the GraphPad Prism 5 software. A fluorescence-linked immunoabsorbent assay (FLISA) that was used to confirm the specificity of Cy5-P0_101–125 for P0 is described in Additional file 1: Fluorescence-linked immunoabsorbent assay.
For orientation: In flow cytometry, cells or beads pass a laser one at a time.

For series [3] the following is noted: ref Spa et al (2); cited from earlier work.
Details of series [4]: method as in 2 sources, one per row (each row's own in cited_ref): ref Spa et al (2) ||| ref (2) (a number printed in a supplementary file, which may have a reference list of its own: not looked up in the article's list). Particulars: cited from earlier work.
A short description of series [5]: Stability in serum. The conditions noted are these: 24 h at 37 °C, % stable.
Series [6] is described as follows: Stability at different temperatures. Particulars: after 4 hr at -20 °C, PBS, 10–0.6 µM, relative to t=0, n = 6.
Experimental: A stock solution of either non-functionalized Cy5 or Cy5-P0101-125 (10 µM in PBS) was diluted
1:1 in PBS to create a concentration range between 10 –0.6 µM. The absorbance and
fluorescence intensities of each sample were measured (t=0 h) prior to storing the samples
at different temperatures (i.e., -20, 0, 20 and 37 °C). After t = 4 h, the absorbance and
fluorescence intensities of each sample was measured. The relative intensities (compared to
t=0) of each concentration were averaged to obtain n = 6 per temperature setting.
For series [7], the target named is T2, Myelin protein zero (P0) (Rattus norvegicus, UniProt P06907).
T2 chain: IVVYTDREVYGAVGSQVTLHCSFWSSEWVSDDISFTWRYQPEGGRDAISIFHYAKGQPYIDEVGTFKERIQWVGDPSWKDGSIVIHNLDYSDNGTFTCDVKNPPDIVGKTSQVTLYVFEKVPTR
The experiment in a line: flow cytometry saturation binding (RT4 D6P2T cells).

Turning to `CC[C@H](C)[C@H](NC(=O)[C@H](C)NC(=O)[C@H](CC(=O)O)NC(=O)[C@H](CCCNC(=N)N)NC(=O)CNC(=O)CNC(=O)[C@H](CCC(=O)O)NC(=O)[C@@H]1CCCN1C(C)=O)C(=O)N[C@@H](CO)C(=O)N[C@H](C(=O)N[C@@H](Cc1ccccc1)C(=O)N[C@@H](Cc1c[nH]cn1)C(=O)N[C@@H](Cc1ccc(O)cc1)C(=O)N[C@@H](C)C(=O)N[C@@H](CCCCN)C(=O)NCC(=O)N[C@@H](CCC(N)=O)C(=O)N1CCC[C@H]1C(=O)N[C@@H](Cc1ccc(O)cc1)C(=O)N[C@H](C(=O)N[C@@H](CC(=O)O)C(=O)N[C@@H](CCC(=O)O)C(=O)N[C@H](C(=O)NCC(=O)N[C@H](C(=O)N[C@@H](CSC1CC(=O)N(CCNC(=O)CCCCC[N+]2=C(/C=C/C=C/C=C3/N(CCCCS(=O)(=O)O)c4ccc(S(=O)(=O)O)cc4C3(C)C)C(C)(C)c3cc(S(=O)(=O)[O-])ccc32)C1=O)C(N)=O)[C@@H](C)O)C(C)C)[C@@H](C)CC)[C@@H](C)CC` (some centres unmarked) [Cy5-P0_41–65] (Ac-PEGGRDAISIFHYAKGQPYIDEVGTC(X1)-NH2), the thermodynamic solubility in series [1] worked out at 45 µM (≈ 169 µg/mL). In series [2], this molecule came in with a Kd greater than 1000 nM.

In the case of `CCN1/C(=C/C=C/C=C/C2=[N+](CCCCCC(=O)O)c3ccc(S(=O)(=O)O)cc3C2(C)C)C(C)(C)c2cc(S(=O)(=O)[O-])ccc21` [Cy5], the Serum protein binding in series [3] is 6% ± 5% and 6%. In series [4] (ref (2)), the “degradation when incubated with glutathione” value is reported as 1%. Also, in series [4] (ref Spa et al (2)), the Stability towards glutathione was 99%. For the same molecule, the Stability in serum in series [5] amounted to 98%. Also, in series [6], the remaining absorbance is recorded as 66 ± 8% and the remaining fluorescence was 80 ± 10%.

For `CC[C@H](C)[C@H](NC(=O)[C@H](CO)NC(=O)CNC(C)=O)C(=O)N[C@H](C(=O)N[C@H](C(=O)N[C@@H](Cc1c[nH]cn1)C(=O)N[C@@H](CC(N)=O)C(=O)N[C@@H](CC(C)C)C(=O)N[C@@H](CC(=O)O)C(=O)N[C@@H](Cc1ccc(O)cc1)C(=O)N[C@@H](CO)C(=O)N[C@@H](CC(=O)O)C(=O)N[C@@H](CC(N)=O)C(=O)NCC(=O)N[C@H](C(=O)N[C@@H](Cc1ccccc1)C(=O)N[C@H](C(=O)N[C@@H](CSC1CC(=O)N(CCNC(=O)CCCCC[N+]2=C(/C=C/C=C/C=C3/N(CCCCS(=O)(=O)O)c4ccc(S(=O)(=O)O)cc4C3(C)C)C(C)(C)c3cc(S(=O)(=O)[O-])ccc32)C1=O)C(=O)N[C@@H](CC(=O)O)C(=O)N[C@H](C(=O)N[C@@H](CCCCN)C(=O)N[C@@H](CC(N)=O)C(=O)N1CCC[C@H]1C(=O)N1CCC[C@H]1C(=O)N[C@@H](CC(=O)O)C(N)=O)C(C)C)[C@@H](C)O)[C@@H](C)O)[C@@H](C)CC)C(C)C` (some centres unmarked) [Cy5-P0_81–105] (Ac-GSIVIHNLDYSDNGTFTC(X1)DVKNPPD-NH2), the thermodynamic solubility in series [1] turned out to be 68 µM (≈ 248 µg/mL). In series [2], this molecule displayed a Kd greater than 1000 nM.

In the case of `CC[C@H](C)[C@H](NC(=O)[C@H](CC(=O)O)NC(=O)[C@@H]1CCCN1C(=O)[C@@H]1CCCN1C(=O)[C@H](CC(N)=O)NC(=O)[C@H](CCCCN)NC(=O)[C@@H](NC(=O)[C@H](CC(=O)O)NC(=O)[C@H](C)NC(=O)[C@@H](NC(=O)[C@H](Cc1ccccc1)NC(=O)[C@@H](NC(C)=O)[C@@H](C)O)[C@@H](C)O)C(C)C)C(=O)N[C@H](C(=O)NCC(=O)N[C@@H](CCCCN)C(=O)N[C@H](C(=O)N[C@@H](CO)C(=O)N[C@@H](CCC(N)=O)C(=O)N[C@H](C(=O)N[C@H](C(=O)N[C@@H](CC(C)C)C(=O)N[C@@H](Cc1ccc(O)cc1)C(=O)N[C@H](C(=O)N[C@@H](Cc1ccccc1)C(=O)N[C@@H](CCC(=O)O)C(=O)N[C@@H](CCCCN)C(=O)N[C@@H](CSC1CC(=O)N(CCNC(=O)CCCCC[N+]2=C(/C=C/C=C/C=C3/N(CCCCS(=O)(=O)O)c4ccc(S(=O)(=O)O)cc4C3(C)C)C(C)(C)c3cc(S(=O)(=O)[O-])ccc32)C1=O)C(N)=O)C(C)C)[C@@H](C)O)C(C)C)[C@@H](C)O)C(C)C` (some centres unmarked) [Cy5-P0_95–120] (Ac-TFTADVKNPPDIVGKTSQVTLYVFEKC(X1)-NH2), the solubility (thermodynamic) in series [1] came to 150 µM (≈ 589 µg/mL). The same molecule returned a Kd in series [2] greater than 1000 nM.

In series [1], `CC[C@H](C)[C@H](NC(=O)[C@H](CCCNC(=N)N)NC(=O)[C@H](CCC(=O)O)NC(=O)[C@H](CCCCN)NC(=O)[C@H](Cc1ccccc1)NC(=O)[C@@H](NC(=O)CNC(=O)[C@@H](NC(=O)[C@H](CCC(=O)O)NC(=O)[C@H](CC(=O)O)NC(C)=O)C(C)C)[C@@H](C)O)C(=O)N[C@@H](CCC(N)=O)C(=O)N[C@@H](Cc1c[nH]c2ccccc12)C(=O)N[C@H](C(=O)NCC(=O)N[C@@H](CC(=O)O)C(=O)N1CCC[C@H]1C(=O)N[C@@H](CCCNC(=N)N)C(=O)N[C@@H](Cc1c[nH]c2ccccc12)C(=O)N[C@@H](CCCCN)C(=O)N[C@@H](CC(=O)O)C(=O)NCC(=O)N[C@@H](CO)C(=O)N[C@H](C(=O)N[C@H](C(=O)N[C@H](C(=O)N[C@@H](CSC1CC(=O)N(CCNC(=O)CCCCC[N+]2=C(/C=C/C=C/C=C3/N(CCCCS(=O)(=O)O)c4ccc(S(=O)(=O)O)cc4C3(C)C)C(C)(C)c3cc(S(=O)(=O)[O-])ccc32)C1=O)C(N)=O)[C@@H](C)CC)C(C)C)[C@@H](C)CC)C(C)C` (some centres unmarked) [Cy5-P0_61–85] (Ac-DEVGTFKERIQWVGDPRWKDGSIVIC(X1)-NH2) came in with a solubility (thermodynamic) of 6 µM (≈ 23.8 µg/mL). Moreover, in series [2], the dissociation constant (Kd) is greater than 1000 nM.

In turn, `CC[C@H](C)[C@H](N)C(=O)N[C@H](C(=O)N[C@H](C(=O)N[C@@H](Cc1ccc(O)cc1)C(=O)N[C@H](C(=O)N[C@@H](CC(=O)O)C(=O)N[C@@H](CCCNC(=N)N)C(=O)N[C@@H](CCC(=O)O)C(=O)N[C@H](C(=O)N[C@@H](Cc1c[nH]cn1)C(=O)NCC(=O)N[C@@H](C)C(=O)N[C@H](C(=O)NCC(=O)N[C@@H](CO)C(=O)N[C@@H](CCCNC(=N)N)C(=O)N[C@H](C(=O)N[C@H](C(=O)N[C@@H](CC(C)C)C(=O)N[C@@H](Cc1c[nH]cn1)C(=O)N[C@@H](CSC1CC(=O)N(CCNC(=O)CCCCC[N+]2=C(/C=C/C=C/C=C3/N(CCCCS(=O)(=O)O)c4ccc(S(=O)(=O)O)cc4C3(C)C)C(C)(C)c3cc(S(=O)(=O)[O-])ccc32)C1=O)C(=O)N[C@@H](CO)C(=O)N[C@@H](Cc1ccccc1)C(=O)N[C@@H](Cc1c[nH]c2ccccc12)C(=O)N[C@@H](CO)C(N)=O)[C@@H](C)O)C(C)C)C(C)C)C(C)C)[C@@H](C)O)C(C)C)C(C)C` (some centres unmarked) [Cy5-P0_1–25] (H-IVVYTDREVHGAVGSRVTLHC(X1)SFWS-NH2) returned a thermodynamic solubility in series [1] of 12 µM (≈ 44.5 µg/mL). Further, the Kd in series [2] was greater than 1000 nM.

Ac-KNPPDIVGKTSQVTLYVFEKVPTRYC(Cy5)-NH2 [Cy5-P0(101-125)] gave a Kd in series [7] of 105 nM.
